# Patent US4473578A, “β-Lactam antibiotics and their use” (Beecham Group Limited, priority 1979, dated 1984)
# Where a name gives a salt, the structure may show the parent alone. Read-outs that look alike come from different tables or passages of the source.
# How the values were obtained:
# Experiment in all cases: MIC in agar
# Type in all cases: cell-based
# [1] = tested on: E. coli ESS; details: Escherichia coli
# Description: | (μg/ml) in agar of compound
# [2] = tested on: Salmonella typhimurium CT10; details: for MIC: Salmonella enterica
# Description: (§1) a. Antibacterial effectiveness of compounds of
# (§2) Examples 6 and 7 in agar.
# (§3) (μg/ml) in agar of compound
# [3] = tested on: Streptococcus faecalis I; details: for MIC: Enterococcus faecalis
# Description: as §1, §2, §3
# [4] = tested on: Shigella sonnei MB 11967; details: for MIC: MB11967
# Description: as §1, §2, §3
# [5] = tested on: Staphylococcus aureus 1517
# Description: as §1, §2, §3
# [6] = tested on: Bacillus subtilis A; details: for MIC: Bacillus subtilis
# Description: as §1, §2, §3
# [7] = tested on: Serratia marcescens US20
# Description: as §1, §2, §3
# [8] = tested on: Proteus vulgaris W091
# Description: as §1, §2, §3
# [9] = tested on: Proteus morganii 1580; details: for MIC: Morganella morganii
# Description: as §1, §2, §3
# [10] = tested on: Escherichia coli JT39
# Description: as §1, §2, §3
# [11] = tested on: Pseudomonas aeruginosa A
# Description: as §1, §2, §3
# [12] = tested on: Klebsiella aerogenes A
# Description: as §1, §2, §3
# [13] = tested on: Staphylococcus aureus Russell
# Description: as §1, §2, §3
# [14] = tested on: Citrobacter freundii E8
# Description: as §1, §2, §3
# [15] = tested on: Proteus rettgeri WM16; details: for MIC: Providencia rettgeri
# Description: as §1, §2, §3
# [16] = tested on: Enterobacter cloacae N1
# Description: as §1, §2, §3
# [17] = tested on: Staphylococcus aureus Oxford
# Description: as §1, §2, §3
# [18] = tested on: Escherichia coli 0111
# Description: as §1, §2, §3
# [19] = tested on: Proteus mirabilis C977
# Description: as §1, §2, §3
# [20] = tested on: Streptococcus pyogenes CN10
# Description: as §1, §2, §3
# [21] = in agar, Salmonella typhimurium CT10, read-out: M.I.C.
# [22] = in agar, Streptococcus faecalis I, read-out: M.I.C.
# [23] = in agar, Staphylococcus aureus 1517, read-out: M.I.C.
# [24] = in agar, Serratia marcescens US20, read-out: M.I.C.
# [25] = in agar, Proteus vulgaris W091, read-out: M.I.C.
# [26] = in agar, Proteus morganii 1580, read-out: M.I.C.
# [27] = in agar, Escherichia coli JT39, read-out: M.I.C.
# [28] = in agar, Pseudomonas aeruginosa A, read-out: M.I.C.
# [29] = in agar, Klebsiella aerogenes A, read-out: M.I.C.
# [30] = in agar, Staphylococcus aureus Russell, read-out: M.I.C.
# [31] = in agar, Citrobacter freundii E8, read-out: M.I.C.
# [32] = in agar, Proteus rettgeri WM16, read-out: M.I.C.
# [33] = in agar, Enterobacter cloacae N1, read-out: M.I.C.
# [34] = in agar, Staphylococcus aureus Oxford, read-out: M.I.C.
# [35] = in agar, Proteus mirabilis C977, read-out: M.I.C.
Structure (SMILES),MIC [1],"MIC [2, 21]","MIC [3, 22]",MIC [4],"MIC [5, 23]",MIC [6],"MIC [7, 24]","MIC [8, 25]","MIC [9, 26]","MIC [10, 27]","MIC [11, 28]","MIC [12, 29]","MIC [13, 30]","MIC [14, 31]","MIC [15, 32]","MIC [16, 33]","MIC [17, 34]",MIC [18],"MIC [19, 35]",other results
"C[C@H](OS(=O)(=O)O)[C@@H]1C(=O)N2C(C(=O)O)=C(S/C=C\C(=O)O)C[C@H]12 [Example 22, The Trisodium salt of (5R,6R)-3-[(Z)-2-carboxyethenylthio]-6-[(S)-1-hydroxysulphonyloxyethyl]-7-oxo-1-azabicyclo[3.2.0]hept-2-ene-2-carboxylic acid]",1.2 µg/mL,1.2 µg/mL,12.5 µg/mL,1.2 µg/mL,25 µg/mL,0.5 µg/mL,5 µg/mL,1.2 µg/mL,0.5 µg/mL,1.2 µg/mL,> 50 µg/mL,1.2 µg/mL,2.5 µg/mL,25 µg/mL,1.2 µg/mL,0.5 µg/mL,2.5 µg/mL,1.2 µg/mL,1.2 µg/mL,
CCSC1=C(C(=O)[O-])N2C(=O)[C@H]([C@H](C)O)[C@H]2C1.[Na+] [Example 7],,,,,,,,,,,,,,,,,,,,"M.I.C. ([2]; in agar, Salmonella typhimurium CT10): 2.5 µg/mL; M.I.C. ([3]; in agar, Streptococcus faecalis I): > 50 µg/mL; M.I.C. [4]: 5.0 µg/mL; M.I.C. ([6]; in agar, Bacillus subtilis A): 5.0 µg/mL; M.I.C. ([7]; in agar, Serratia marcescens US20): 5.0 µg/mL; M.I.C. ([8]; in agar, Proteus vulgaris W091): 5.0 µg/mL; M.I.C. ([9]; in agar, Proteus morganii 1580): 2.5 µg/mL; M.I.C. ([10]; in agar, Escherichia coli JT39): 2.5 µg/mL; M.I.C. ([11]; in agar, Pseudomonas aeruginosa A): > 50 µg/mL; M.I.C. ([12]; in agar, Klebsiella aerogenes A): 2.5 µg/mL; M.I.C. ([13]; in agar, Staphylococcus aureus Russell): 1.2 µg/mL; M.I.C. ([14]; in agar, Citrobacter freundii E8): 2.5 µg/mL; M.I.C. ([15]; in agar, Proteus rettgeri WM16): 5.0 µg/mL; M.I.C. ([20]; in agar, Streptococcus pyogenes CN10): 1.2 µg/mL; M.I.C. ([16]; in agar, Enterobacter cloacae N1): 5.0 µg/mL; M.I.C. ([17]; in agar, Staphylococcus aureus Oxford): 1.2 µg/mL; M.I.C. [18]: 5.0 µg/mL; M.I.C. ([19]; in agar, Proteus mirabilis C977): 12.5 µg/mL"
"C[C@H](O)[C@H]1C(=O)N2C(C(=O)O)=C(S/C=C\C(=O)OCCN)C[C@H]12 [Example 18, (5R,6S)-3-[2-(Z)-(2-Aminoethoxycarbonyl)ethenylthio]-6-[(S)-1-hydroxyethyl]-7-oxo-1-azabicyclo[3.2.0]hept-2-ene-2-carboxylic acid]",1 µg/mL,3.1 µg/mL,12.5 µg/mL,3.1 µg/mL,6.2 µg/mL,,1.2 µg/mL,6.2 µg/mL,3.1 µg/mL,3.1 µg/mL,25 µg/mL,3.1 µg/mL,0.4 µg/mL,3.1 µg/mL,6.2 µg/mL,3.1 µg/mL,≤ 0.1 µg/mL,3.1 µg/mL,12.5 µg/mL,"MIC ([20]; in agar, Streptococcus pyogenes CN10, read-out: M.I.C.): ≤ 0.1 µg/mL"
"CSC1=C(C(=O)[O-])N2C(=O)[C@H]([C@H](C)O)[C@H]2C1.[Na+] [Example 6, Sodium (5R, 6S)-3-methylthio-6-[(S)-1-hydroxyethyl]-7-oxo-1-azabicyclo[3.2.0]hept-2-ene-2-carboxylate]",,,,12.5 µg/mL,,25 µg/mL,,,,,,,,,,,,12.5 µg/mL,,"MIC ([2]; TYPHIMURIUM): 12.5 µg/mL; MIC [3]: > 100 µg/mL; MIC ([5]; Staphylococcus aureus, 1517): 100 µg/mL; MIC ([7]; Serratia marcescens, US20): 12.5 µg/mL; MIC ([8]; Proteus vulgaris, W091): 25 µg/mL; MIC [9]; 1580: 25 µg/mL; MIC ([10]; Escherichia coli, JT39): 12.5 µg/mL; MIC ([11]; Pseudomonas aeruginosa): > 100 µg/mL; MIC ([12]; Klebsiella aerogenes): 12.5 µg/mL; MIC ([13]; Staphylococcus aureus): 6.2 µg/mL; MIC ([14]; Citrobacter freundii, E8): 12.5 µg/mL; MIC ([15]; WM16): 25 µg/mL; MIC ([20]; Streptococcus pyogenes, CN10): 25 µg/mL; MIC ([16]; Enterobacter cloacae, N1): 28 µg/mL; MIC ([17]; Staphylococcus aureus): 3.1 µg/mL; MIC ([19]; Proteus mirabilis, C977): 50 µg/mL"
